In brackets after ≈: the same amount, converted by molar mass.

One data set relates to Colinus virginianus. Conditions: reproduction developmental.
In the next data set the test system is Coturnix japonica. Conditions: acute; oral; mortality.
The subject of another data set is Folsomia candida. To be noted: chronic/long-term; duration: 28 days.
The test system of a further data set is Canidae. To be noted: chronic; duration: 1 years; Dog Other; clinical signs.
The next data set has as its system Oncorhynchus mykiss. Conditions: acute; duration: 96 hours; mortality.
In the next data set the test system is Apis mellifera. To be noted: acute, mortality.
The test system of a further data set is Tagia sp. To be noted: chronic/long-term; duration: 56 days.
In a further data set the test system is Daphnia magna. To be noted: chronic/long-term; duration: 21 days.
The subject of a further data set is Typhlodromus pyri. Put plainly: LR50; higher = less toxic. To be noted: acute; mortality.

Consider `CCN(CC)C(=O)[C@@H](C)Oc1cccc2ccccc12` [(R)-N,N-Diethyl-2-(1-naphthyloxy)propionamide], for which the NOAEL in the data set on Colinus virginianus turned out to be 309 mg/kg-day; in the data set on Canidae it was 50 mg/kg-day; in the data set on Rattus norvegicus (chronic, duration: 2 years, body weight), 30 mg/kg-day; with Rattus norvegicus (subchronic, duration: 90 days, oral, hematological), 46 mg/kg-day. The LD50 is more than 2000 mg/kg-day in the data set on Coturnix japonica; more than 2000 mg/kg-day with Rattus norvegicus (acute, oral, mortality); more than 110 µg/piece with Apis mellifera (dermal); more than 110 µg/piece with Apis mellifera (oral, unspecified). Further, the NOEC with Folsomia candida worked out at 47.7 mg/kg; in the data set on Tagia sp., 17.1 mg/kg; in the data set on Daphnia magna, 0.1 mg/L. This molecule registered a median lethal concentration (LC50) with Oncorhynchus mykiss of 11.2 µg/mL (≈ 41.3 µM). In the data set with Typhlodromus pyri, the LR50 is more than 4140 g/ha.
